According to publication PMC8252726, “Automated Glycan Assembly of ^19F‐labeled Glycan Probes Enables High‐Throughput NMR Studies of Protein–Glycan Interactions” (Angewandte Chemie (International Ed. in English), 2021):

Key:
LecB = molecular target: T1, LecB (Pseudomonas aeruginosa, UniProt Q9HYN5); test: […] and CPMG NMR screening; format: binding; conditions: fucosylated F-glycans as a group
T1 construct: soluble lectin

BambL = molecular target: T2, BambL (Burkholderia ambifaria, UniProt Q0B4G1); test: […] NMR titration (ligand-observed); format: binding
T2 construct: gene Bamb_5415; soluble lectin; 15N-labeled for TROSY
T2 sequence (Q0B4G1 entry or part of it): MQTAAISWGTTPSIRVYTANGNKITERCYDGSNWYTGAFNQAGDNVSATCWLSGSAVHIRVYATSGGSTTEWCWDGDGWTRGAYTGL

β‐galactosidase = test: real-time […] NMR of product formation; format: biochemical; conditions: Henry-Michaelis-Menten fit
Pdα26ST = molecular target: T3, Pdα26ST (Photobacterium damselae, UniProt O66375); test: CPMG […] NMR screening; format: binding; conditions: without donor CMP-Neu5Ac
T3 construct: gene bst
T3 sequence (O66375 16-675): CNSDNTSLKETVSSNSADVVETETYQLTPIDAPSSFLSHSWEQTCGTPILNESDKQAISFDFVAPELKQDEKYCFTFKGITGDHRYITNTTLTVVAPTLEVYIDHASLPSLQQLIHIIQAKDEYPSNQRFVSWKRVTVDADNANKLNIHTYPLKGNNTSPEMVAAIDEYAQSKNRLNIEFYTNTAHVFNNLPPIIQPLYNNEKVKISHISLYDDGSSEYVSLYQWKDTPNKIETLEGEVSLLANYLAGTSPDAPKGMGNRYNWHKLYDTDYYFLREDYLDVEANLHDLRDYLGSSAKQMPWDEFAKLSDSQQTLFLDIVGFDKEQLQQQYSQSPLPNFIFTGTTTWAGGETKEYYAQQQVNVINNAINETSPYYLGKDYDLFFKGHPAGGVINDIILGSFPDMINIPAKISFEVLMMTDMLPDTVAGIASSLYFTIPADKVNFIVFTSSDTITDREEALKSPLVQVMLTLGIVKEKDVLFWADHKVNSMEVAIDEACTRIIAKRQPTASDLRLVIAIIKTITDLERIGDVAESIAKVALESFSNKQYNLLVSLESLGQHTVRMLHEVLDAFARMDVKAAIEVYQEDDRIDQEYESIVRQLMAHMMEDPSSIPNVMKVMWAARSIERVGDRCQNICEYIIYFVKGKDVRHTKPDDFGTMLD

Pmα23ST = molecular target: T4, Pmα23ST (Pasteurella multocida, UniProt Q15KI8); test: CPMG […] NMR screening; format: binding; conditions: without donor; also sialylated with CMP-Neu5Ac
T4 construct: gene Pm0188
T4 sequence (Q15KI8 26-412): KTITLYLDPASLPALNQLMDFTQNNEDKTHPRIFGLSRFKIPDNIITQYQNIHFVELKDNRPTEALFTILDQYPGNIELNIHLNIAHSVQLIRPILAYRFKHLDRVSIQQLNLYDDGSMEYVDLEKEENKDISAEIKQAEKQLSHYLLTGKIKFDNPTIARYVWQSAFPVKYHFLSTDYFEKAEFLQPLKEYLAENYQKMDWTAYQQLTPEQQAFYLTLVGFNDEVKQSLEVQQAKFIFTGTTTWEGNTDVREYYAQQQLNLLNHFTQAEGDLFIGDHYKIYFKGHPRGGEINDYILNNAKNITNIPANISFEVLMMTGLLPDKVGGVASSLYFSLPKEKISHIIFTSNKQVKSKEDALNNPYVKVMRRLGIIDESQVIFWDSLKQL

T1 sequence (Q9HYN5 entry or part of it): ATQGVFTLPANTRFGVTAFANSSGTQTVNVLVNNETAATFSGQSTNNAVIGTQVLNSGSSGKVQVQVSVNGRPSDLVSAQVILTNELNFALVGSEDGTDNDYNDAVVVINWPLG

SMILES	19F and CPMG NMR screening (LecB)	Kd (BambL) [µM]	Km (β‐galactosidase) [µM]	CPMG 19F NMR screening (Pdα26ST)	CPMG 19F NMR screening (Pmα23ST)
CC(=O)N[C@H]1[C@H](O[C@H]2[C@@H](O)[C@@H](CO)O[C@@H](O[C@H]3[C@H](F)[C@@H](O)[C@H](OCCCCCN)O[C@@H]3CO)[C@@H]2O)O[C@H](CO)[C@@H](O[C@@H]2O[C@H](CO)[C@H](O)[C@H](O)[C@H]2O[C@@H]2O[C@@H](C)[C@@H](O)[C@@H](O)[C@@H]2O)[C@@H]1O [F‐H type 2]	bacterial (LecA, LecB, and BambL) and mammalian (DC‐SIGN ECD) lectins preferred fucosylated glycans	9 ± 2			
NCCCCCO[C@@H]1O[C@H](CO)[C@@H](O[C@@H]2O[C@H](CO)[C@H](O)[C@H](O)[C@H]2O)[C@H](F)[C@H]1O [F‐Lac]			86.5 ± 10.5	Shorter non‐branched glycans (F‐Lac and F‐nLac4) showed stronger binding than longer branched ones	
CC(=O)N[C@H]1[C@H](O[C@H]2[C@@H](O)[C@@H](CO)O[C@@H](O[C@H]3[C@H](F)[C@@H](O)[C@H](OCCCCCN)O[C@@H]3CO)[C@@H]2O)O[C@H](CO)[C@@H](O[C@@H]2O[C@H](CO)[C@H](O)[C@H](O)[C@H]2O[C@@H]2O[C@@H](C)[C@@H](O)[C@@H](O)[C@@H]2O)[C@@H]1O[C@@H]1O[C@@H](C)[C@@H](O)[C@@H](O)[C@@H]1O [F‐Le^y]		14 ± 2			
CC(=O)N[C@H]1[C@H](O[C@H]2[C@@H](O)[C@@H](CO)O[C@@H](O[C@H]3[C@H](F)[C@@H](O)[C@H](OCCCCCN)O[C@@H]3CO)[C@@H]2O)O[C@H](CO)[C@@H](O[C@@H]2O[C@H](CO)[C@H](O)[C@H](O)[C@H]2O)[C@@H]1O [F‐nLac4]				Shorter non‐branched glycans (F‐Lac and F‐nLac4) showed stronger binding than longer branched ones	Shorter non‐branched glycans (F‐Lac and F‐nLac4) showed stronger binding than longer branched ones
